# Reference: ChEMBL document CHEMBL1148448, “Fluorinated phenylcyclopropylamines. 1. Synthesis and effect of fluorine substitution at the cyclopropane ring on inhibition of microbial tyramine oxidase” (J Med Chem, 2004)
# Tested on: tyramine oxidase (microbial, copper amine oxidase); call rule not given here
# Experiment: Compound was evaluated for inhibition of Microbial tyramine oxidase; ni denotes no inhibition detected at millimolar concentrations
row,IC50,SMILES
1,Not Active,Cl.NCC[C@@H]1C[C@]1(F)c1ccccc1 (relative stereo)
2,Not Active,Cl.NC[C@@H]1C[C@]1(F)c1ccccc1 (relative stereo)
3,Not Active,NC(=O)C1CC1(F)c1ccccc1 (trans isomer)

row,SMILES,IC50
1,Cl.NC1(c2ccccc2)CC1F (centres undefined),Not Active
